Measurements as given in article PMC7175277, “Hydroxylamine Analogue of Agmatine: Magic Bullet for Arginine Decarboxylase” (Biomolecules, 2020).

Columns and labels:
[1] = tested on: Acremonium chrysogenum wild-type (WT) ATCC 11550; assay: Fungal growth inhibition (drop-dilution, CD agar), WT strain; assay type: cell-based; details: for inhibition at 5000 µM: Hapsidospora chrysogena, ATCC11550, 336 h, 14 days after inoculation on CD medium
From the text: (§1) Two strains of Acremonium chrysogenum were used in this study: the wild-type (Brotzu) isolate ATCC 11550 (WT) and high-cephalosporin-yielding RNCM F-4081D (HY), derived from the WT [37]. The cultivation conditions were the same as previously described. The filamentous fungi were cultivated on agarized Czapek-Dox (CD) medium (30 g/L sucrose, 2 g/L NaNO3, 1 g/L K2HPO4, 0.5 g/L MgSO4×7 H2O, 0.5 g/L KCl, 0.01 g/L FeSO4×7 H2O, 20 g/L agar, pH 7.0–7.4). To determine the toxic effect of AO-Agm, APA, DFMA and DFMO on the growth of fungal cells the drop-dilution method was used with some modifications as described earlier. Cells were collected from agar slants and diluted with 0.9% NaCl solution up to OD600 = 0.5 (basic concentration), followed by serial tenfold dilutions with the same solution. […] The inoculated Petri dishes were incubated for 21 days at 26 °C. The inhibitory effects of the compounds were measured every three days after inoculation and evaluated by measuring the ratio of colony growth on agarized CD medium supplemented with AO-Agm, APA, DFMA, or DFMO to the growth in the control (agarized CD medium without any additions). The formula: growth inhibition % = [(Dc − Dt)/Dc] × 100, where Dc indicates the colony diameter in control set, and Dt indicates the colony diameter in the treatment set that was used to determine the percent of fungal growth inhibition. The data recorded were measured in triplicate and repeated at least twice.

[2] = tested on: Acremonium chrysogenum high-cephalosporin-yielding (HY) RNCM F-4081D; assay: Fungal growth inhibition (drop-dilution, CD agar), HY strain; assay type: cell-based; details: for inhibition at 5000 µM: Hapsidospora chrysogena, 336 h, read-out: Growth inhibition
From the text: as §1

[3] = target: T1, E. coli ADC (Escherichia coli, UniProt P21170); assay: E. coli ADC activity assay (HPLC of agmatine); assay type: biochemical; details: 0.1 mM PLP; 15 min preincubation; 0.15 mM L-Arg
T1 construct: The kinetic parameters determined for the partially purified biosynthetic ADC from E. coli; endogenous in cells; host or cells: E. coli DH5α (39-53% ammonium sulphate fraction of the lysate, desalted)
T1 sequence (P21170 1-658): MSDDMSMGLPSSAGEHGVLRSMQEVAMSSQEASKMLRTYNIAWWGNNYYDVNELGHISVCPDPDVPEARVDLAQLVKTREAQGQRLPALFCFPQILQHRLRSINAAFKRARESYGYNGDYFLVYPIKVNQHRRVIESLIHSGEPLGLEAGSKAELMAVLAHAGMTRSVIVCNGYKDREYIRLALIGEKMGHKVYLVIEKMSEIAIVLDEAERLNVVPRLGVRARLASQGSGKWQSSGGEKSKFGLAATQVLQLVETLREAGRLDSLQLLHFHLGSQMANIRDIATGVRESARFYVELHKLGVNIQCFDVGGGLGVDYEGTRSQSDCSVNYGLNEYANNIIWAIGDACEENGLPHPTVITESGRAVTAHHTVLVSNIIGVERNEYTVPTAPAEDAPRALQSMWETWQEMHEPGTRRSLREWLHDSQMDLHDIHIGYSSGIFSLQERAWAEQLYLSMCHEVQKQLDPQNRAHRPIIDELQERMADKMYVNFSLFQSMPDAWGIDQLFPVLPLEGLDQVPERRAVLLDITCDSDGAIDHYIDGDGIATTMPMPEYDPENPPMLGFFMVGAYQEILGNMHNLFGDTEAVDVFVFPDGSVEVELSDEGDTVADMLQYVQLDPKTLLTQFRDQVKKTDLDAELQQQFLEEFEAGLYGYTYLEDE
Method: (§2) The purification was performed using a modified procedure of earlier publication. E. coli strain DH5α was grown in Luria-Bertani broth at +37 °C with shaking (200 rpm) overnight. The cells were collected by centrifugation and the pellet was homogenized with Potter-Elvehjem in 10 volumes (w/v) of ice-cold 50 mM Tris-HCl pH 7.4, 1 mM DTT. The cell debris was removed by centrifugation at 12,000 g for 30 min at +4 °C. Solid (NH4)2SO4 was added to the supernatant, and the pellet precipitating between 39% and 53% saturation was separated. The precipitate was resuspended in ice-cold buffer containing 50 mM Tris-HCl pH 7.4 and 1 mM DTT and desalted by passage through Sephadex G-25 column (NAP-10 column, GE Healthcare). The protein concentration was measured with Bio-Rad protein reagent, and the partially purified enzyme preparation was mixed with 20% glycerol and aliquoted for storage at −80 °C.
[…] The ODC reaction mixture contained 50 mM Tris-HCl pH 7.8, 1 mM EDTA, 2.4 mM DTT, 0.1 mM PLP and 20 μg of partially purified enzyme preparation. The mixtures were either preincubated or not preincubated for 15 min at +40 °C in the presence of the inhibitor, after which the reaction was started by the addition of 18 μL of 10× substrate (L-Arg for ADC and L-Orn for ODC). After incubation for 30 min (ADC) or 20 min (ODC) at +40 °C, 20 μL of 50% sulphosalicylic acid containing 50 μM diaminoheptane (internal standard) was added and the samples were analyzed for the content of agmatine (ADC) and Put (ODC) with HPLC as described previously. The kinetic parameters and IC50 values were determined with the aid of GraphPad Prism version 5.03 using nonlinear regression analysis.

[4] = tested on: A. chrysogenum HY strain; assay: Polyamine content in the fungi, HY strain; assay type: cell-based, Acremonium chrysogenum; details: 24 h
Method: (§3) WT and HY A. chrysogenum strains were preliminarily grown in tubes on CD medium slants for 7 days at 25 °C and used for the inoculation of 30 mL of a liquid CD medium (seed medium). The strains were cultivated on CD medium for 48 h at 26 °C and inoculated into ten volumes of CD medium. The fermentation was carried out for 120 h at 26 °C in 250-mL Erlenmeyer flasks on a CERTOMAT BS-1 shaker (Sartorius, Germany) at 230 rpm, as described earlier. After 24 h of culture, 1 mL aliquots were removed, fungi were separated by centrifugation (15 min, 14,000 g) and washed with H2O (3 × 2 mL). The washed biomass was subjected to three cycles of freezing (−80 °C) and thawing at 20 °C in 5% perchloric acid. After the final thaw, samples were vortexed for 2 min and centrifuged for 10 min at 14,000 g. The supernatant was used for the determination of polyamine content.
(§4) The dry biomass was prepared from 2 mL aliquots of fermentation media after 24 h. The biomass was separated by centrifugation (15 min, 14,000 g), the precipitated fungi cells were washed in triplicate with 10 volumes of H2O, dried at 80 °C for 96 h to a constant weight and used for normalization of polyamine content in the fungi.
(§5) Polyamines were determined by HPLC from 50 µL of the 5% perchloric acid supernatant using a precolumn modification with Dans-Cl following mostly the published protocol. 1,7-Diaminoheptane was used as an internal standard and proline applied to quench the dansylation reaction. The solution of the dansylated polyamines in toluene (2 μL) was mixed with 50% aq. ethanol (13 µL) and applied on a reversed phase column (Cosmosil C18-MS-II, 250 × 4.6 mm, 5 µm). The column was eluted (1 mL/min) with the gradient: 0 min—0% B; 4 min—65% B; 17 min—65% B; 19 min—100% B, 23 min—100% B, 25 min—0% B; 30 min—0% B. System A—40% acetonitrile, 60% H2O. System B—80% acetonitrile, 20% tetrahydrofuran. Column temperature 40 °C, pressure 80–120 bar, fluorescent detection: λex 340 nm, λem 530 nm (detector RF-20A, Shimadzu Scientific Instrument, Columbia, MD, USA).

[5] = tested on: A. chrysogenum WT strain; assay: Polyamine content in the fungi, WT strain; assay type: cell-based, Acremonium chrysogenum; details: 24 h
Method: as §3, §4, §5

[6] = target: E. coli ODC (Escherichia coli, UniProt P21169); assay: E. coli ODC activity assay (HPLC of Put); assay type: biochemical; details: 0.1 mM PLP; 15 min preincubation; 7 mM L-Orn
Method: as §2
The ADC reaction mixture contained 50 mM Tris-HCl pH 7.8, 4 mM MgCl2, 1 mM DTT, 1.0 or 0.1 mM PLP and 20 μg of partially purified enzyme preparation in a total volume of 162 μL. The ODC reaction mixture contained 50 mM Tris-HCl pH 7.8, 1 mM EDTA, 2.4 mM DTT, 0.1 mM PLP and 20 μg of partially purified enzyme preparation. […] After incubation for 30 min (ADC) or 20 min (ODC) at +40 °C, 20 μL of 50% sulphosalicylic acid containing 50 μM diaminoheptane (internal standard) was added and the samples were analyzed for the content of agmatine (ADC) and Put (ODC) with HPLC as described previously. The kinetic parameters and IC50 values were determined with the aid of GraphPad Prism version 5.03 using nonlinear regression analysis.

[7] = target: T1, E. coli ADC; parameters: method as in PMID 4571773; details: pH 8.4; cited from earlier work

Sequence of E. coli ODC (P21169 whole entry): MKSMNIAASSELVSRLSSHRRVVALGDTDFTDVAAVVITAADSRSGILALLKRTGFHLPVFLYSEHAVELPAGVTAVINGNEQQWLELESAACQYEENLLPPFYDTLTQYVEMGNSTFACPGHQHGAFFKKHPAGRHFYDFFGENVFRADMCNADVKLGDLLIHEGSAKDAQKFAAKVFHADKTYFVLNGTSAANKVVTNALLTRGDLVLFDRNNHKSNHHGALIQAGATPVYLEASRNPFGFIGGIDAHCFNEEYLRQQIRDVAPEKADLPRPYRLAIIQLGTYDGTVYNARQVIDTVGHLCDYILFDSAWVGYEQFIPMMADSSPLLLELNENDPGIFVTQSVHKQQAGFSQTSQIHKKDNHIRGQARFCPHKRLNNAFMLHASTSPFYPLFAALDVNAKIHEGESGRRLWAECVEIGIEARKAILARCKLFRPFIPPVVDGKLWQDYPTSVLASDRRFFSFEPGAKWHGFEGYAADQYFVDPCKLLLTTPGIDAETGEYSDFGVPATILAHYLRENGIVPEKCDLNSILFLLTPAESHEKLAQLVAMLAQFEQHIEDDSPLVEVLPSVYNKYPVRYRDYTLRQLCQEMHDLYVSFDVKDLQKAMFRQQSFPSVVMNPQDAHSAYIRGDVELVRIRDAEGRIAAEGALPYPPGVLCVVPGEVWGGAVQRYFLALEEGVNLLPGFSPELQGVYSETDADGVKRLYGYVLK

N=C(N)NCCCC(N)(C(=O)O)C(F)F (racemic) [DFMA, D,L-α-(difluoromethyl)arginine]
inhibition at 5000 µM ([1]; 5 mM inhibitor): 7% | inhibition at 5000 µM [2]: 13% | IC50 [3]: 10 ± 1 µM

NCCC[C@](N)(C(=O)O)C(F)F [DFMO, α-(Difluoromethyl)ornithine]
Put ([4]; 5 mM DFMO + 0.5 mM Spd): <10 pmol/mg Dry Weight | Spd ([4]; 5 mM DFMO + 0.5 mM Spd): 46,630 ± 6700 pmol/mg Dry Weight | Spm ([4]; 5 mM DFMO + 0.5 mM Spd): 340 ± 56 pmol/mg Dry Weight | Put ([4]; 5 mM DFMO): <10 pmol/mg Dry Weight | Spd ([4]; 5 mM DFMO): 410 ± 60 pmol/mg Dry Weight | Spm ([4]; 5 mM DFMO): 424 ± 39 pmol/mg Dry Weight | Put ([5]; 5 mM DFMO + 0.5 mM Spd): <10 pmol/mg Dry Weight | Spd ([5]; 5 mM DFMO + 0.5 mM Spd): 11,530 ± 3690 pmol/mg Dry Weight | Spm ([5]; 5 mM DFMO + 0.5 mM Spd): 90 ± 30 pmol/mg Dry Weight | Put ([5]; 5 mM DFMO): <10 pmol/mg Dry Weight | Spd ([5]; 5 mM DFMO): 140 ± 10 pmol/mg Dry Weight | Spm ([5]; 5 mM DFMO): 170 ± 20 pmol/mg Dry Weight | Potency to inhibit E. coli ODC [6]: very low potency | Growth inhibition compared with 1 mM APA ([1]; 1 mM inhibitor): significantly less effective | Growth of WT strain ([1]; 5 mM inhibitor): completely inhibited | Effect of 0.5 mM Spd on the growth arrest caused by the inhibitor ([1]; 5 mM inhibitor + 0.5 mM Spd): reversed the growth arrest | inhibition at 5000 µM ([1]; 5 mM inhibitor): 100% | Growth inhibition compared with 5 mM ([2]; HY strain, 1 mM inhibitor): much less effective | inhibition at 5000 µM [2]: 41%

N=C(N)NCCC[C@H](N)C(=O)O [L-Arg, L-arginine]
Km [7]: 30 µM
